Source: PubChem BioAssay (NCI)
Values joined by “and” are separate entries in the source; they are usually repeats but may differ in a detail not shown here. Equal values may be shown once.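 Five compound concentrations were applied to cells in 96-well plates for 48 hours; endpoints were derived by simple linear interpolation of the resulting dose-response curve. GI50: concentration for 50% inhibition of growth. TGI: concentration producing complete growth inhibition.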

Key:
Assay in all cases: NCI tumour cell line growth inhibition, 48 h
SK-MEL-2 melanoma = system: SK-MEL-2 melanoma
MCF7 breast = system: MCF7 breast
SW-620 colon = system: SW-620 colon
RXF 393 renal = system: RXF 393 renal
SF-295 CNS = system: SF-295 CNS
HCT-15 colon = system: HCT-15 colon
T-47D breast = system: T-47D breast
SK-OV-3 ovarian = system: SK-OV-3 ovarian

Row | Structure (SMILES) | GI50 (SK-MEL-2 melanoma) [µM] | TGI (SK-MEL-2 melanoma) | GI50 (MCF7 breast) [µM] | TGI (MCF7 breast) | GI50 (SW-620 colon) [µM] | TGI (SW-620 colon) | GI50 (RXF 393 renal) [µM] | TGI (RXF 393 renal) [µM] | GI50 (SF-295 CNS) [µM] | TGI (SF-295 CNS) [µM] | GI50 (HCT-15 colon) [µM] | TGI (HCT-15 colon) [µM] | GI50 (T-47D breast) [µM] | TGI (T-47D breast) | GI50 (SK-OV-3 ovarian) [µM] | TGI (SK-OV-3 ovarian) [µM]
1 | O=C1N=C(Nc2nc(-c3csc(NC4=NC(=O)/C(=C\c5ccc(Cl)cc5)S4)n3)cs2)S/C1=C/c1ccc(Cl)cc1 | > 50 | > 50 µM | 3.97 | > 50 µM | 39 | > 50 µM | 11.6 | > 50 | 17.4 | > 50 | 40.4 | > 50 | 18.8 | > 50 µM |  | 
2 | Cc1[nH]n(-c2cccc(Cl)c2)c(=O)c1/C=C1\C=c2ccccc2=CC1=O | 21.8 | 70.2 µM |  |  | > 100 | > 100 µM |  |  | 23.2 | > 100 | > 100 | > 100 | > 100 | > 100 µM | 26.5 | > 100
3 | COc1cc(/C=C/c2cc(O)c(C/C=C(\C)CC/C=C(\C)CO)c(O)c2)cc2c1O[C@]1(C)CC[C@@H](O)C(C)(C)[C@H]1C2 | > 100 | > 100 µM |  |  |  |  |  | > 100 | 1.1 |  |  | > 72.4 | > 62.4 | > 100 µM | > 100 | > 100
4 | CCN(CCO)CCCOc1ccc2c(Nc3cc(CC(=O)Nc4cccc(F)c4)[nH]n3)ncnc2c1 | 16.9 | 35.4 µM and > 2.16 µM |  | 22.5 µM and > 4.11 µM | 7.23 | 29.8 µM and > 4.11 µM |  |  |  | > 100 | > 100 | > 100 | 13.9 | 42.7 µM and > 2.45 µM | 15.6 | > 57.1
5 | Cc1ccc(S(=O)(=O)CC2(Br)CCc3ccccc3C2=O)cc1 (centres undefined) |  | 44.9 µM |  | 85.9 µM |  | > 100 µM |  | 39 |  | > 100 |  | 42.5 |  |  |  | > 100
6 | COc1ccc2c(c1)N(CCO)C1=C(C(=O)OC1)C2c1ccc(OC)c(OC)c1 (centres undefined) | 2.66 | 11.3 µM | 2.67 | > 100 µM | 3.21 | > 100 µM |  |  | 2.43 | > 100 | 3.09 | > 100 | > 100 | > 100 µM | 4.13 | > 100
7 | Cc1c(O)c(Br)c(C)c(O)c1Br (tested in a mixture with another compound) |  | 10.7 µM |  |  |  | 6.83 µM |  | 3.33 |  | 37.1 |  |  |  | 5.54 µM |  | 29.4
8 | CCCCCCSc1nc(COC(=O)NC)c(COC(=O)NC)n1C |  | > 100 µM |  | > 100 µM |  | > 100 µM |  |  |  | > 100 |  | > 100 |  | > 100 µM |  | > 100
9 | O=C(O)c1cn(C2CC2)c2cc(N3CCN(Cc4ccc5ccccc5c4O)CC3)c(F)cc2c1=O | 5.11 | > 100 µM | 3.63 | > 100 µM |  |  | 2.29 | 5.64 | 4.29 | > 100 | 3.22 | > 100 | > 100 | > 100 µM | 3.68 | > 100
10 | N=C1C(c2nc3ccccc3s2)=C(O)CN1c1cc(Cl)cc(Cl)c1 | > 100 | > 100 µM | > 100 | > 100 µM | > 100 | > 100 µM |  |  | 89.2 | > 100 | 0.705 | > 100 | > 100 | > 100 µM | > 100 | > 100
